Source: patent EP0618807B1, “A STABILIZED PHARMACEUTICAL FORMULATION COMPRISING GROWTH HORMONE AND HISTIDINE” (NOVO NORDISK A/S, priority 1991, dated 1993)

Tests used:
[1] = Stability statements of the general description (deamidation, stability in solution); type: physicochemical; conditions: addition of the solvent to the hGH preparation
[2] = Example 2: deamidation at 25°C with histidine or histidine derivatives, desamido content by IE-HPLC; type: physicochemical; conditions: compared to phosphate at pH 6.5
Protocol: The rate of deamidation was examined at 25°C for hGH preparations comprising 6 IU hGH at pH 6.5 and at pH 7.3 in 5 mM, 10 mM and 100mM His buffer as compared to 8 mM phosphate buffer at the same pH. Furthermore, the histidine derivatives His-Gly, His-Ala, His-Leu, His-Lys, His-Phe, His-Ser, Histidine methyl ester, histidinol, imidazole, imidazole-4-acetic acid and histamine were tested.
The hGH preparations were prepared by dissolving 20 mg hGH in 10 ml of histidine buffer of the desired strength prepared by dissolving 7.8 mg, 15.5 mg and 155.2 mg, respectively, of histidine in 10 ml deionized water containing 0.9% (v/v) of benzyl alcohol and adding 0.1 N hydrochloric acid to achieve the stated pH.
The hGH formulations stated in Table 2 below were stored at 25°C and analyzed for their desamido content after 14 and 30 days by IE-HPLC.

Structure (SMILES)	reduction in the deamidation [1]	effect on de-amidation / stabilization (in words) [2]
CCO [10% ethanol, ethanol]	more than 20%	
OCc1ccccc1 [benzyl alcohol]		no influence
CO [5% methanol, methanol]	more than 20%	
Cc1cccc(O)c1 [m-cresol]		no influence
